In US6066484A, “Purine nucleosidase” (Suntory Limited, priority 1996, dated 2000):
Entries after “also recorded” stand apart in the source; their conditions may differ.

Columns and labels:
Format in all cases: biochemical, Ochrobactrum anthropi
purine nucleosidase [1] = assay: Effect of metal ions on purine nucleosidase; conditions: for Relative activity: 1 mM metal, pH 4.5, 30° C., 40 minutes, not added = 100.0; for Inhibition or activation of purine nucleosidase by metal ions (in words): 1 mM metal ion
Method: (§1) The reaction solution (200 μl) contained 0.5 mM of adenosine or inosine or 0.25 mM of guanosine as the substrate, 50 mM of acetate buffer at pH 4.5 and a sufficient amount of enzyme. The reaction was initiated by addition of the enzyme, and the reaction was conducted at 50° C. for 5 minutes. The reaction was terminated by addition of 20 μl of 15% perchloric acid, and after centrifugation (35,000 rpm, 10 min) the supernatant was analyzed qualitatively by thin-layer chromatography (TLC) and quantitatively by high-performance liquid chromatography. The analysis methods were as follows.
Various metal ions were added to the activity measuring solution in an amount of 1 mM to measure the activity. The reaction was conducted at pH 4.5, 30° C. for 40 minutes.

purine nucleosidase [2] = assay: Substrate specificity of purine nucleosidase by thin-layer chromatography; design: key to Relative activity: -: not reacted; +: <10%; ++: <31%; +++: <50%; ++++: >50%; conditions: for Relative activity: thin-layer chromatography
Method: as §1
(1) Thin-layer chromatography
Plate: Kieselgel 60F254 (Merk)
Developing solution: n-butanol/isopropanol/H2 O/NH4 OH=1:7:2:0.2 (v/v/v/v) (for adenosine and guanosine substrates), n-butanol/acetic acid/H2 O=5:1:1 (v/v/v) (for inosine substrate)
The substrate specificity of the purine nucleosidase was determined by thin-layer chromatography (TLC).
(§2) The specific activity was measured under conditions of 50° C., pH 4.5. The Km and Vmax were measured under conditions of 30° C., pH 4.5. The relative activity was expressed according to the following measurement method.

purine nucleosidase [3] = assay: Effect of inhibitors on purine nucleosidase; conditions: 1 mM inhibitor; for Relative activity: pH 4.5, 30° C., 20 minutes, not added = 100.0
Method: as §1
The activity was measured after adding 1 mM of different inhibitors to the activity measurement solution. The reaction was conducted at pH 4.5, 30° C. for 20 minutes.

[4] = system: Active fraction 1 (purine nucleosidase activity); assay: Purine nucleosidase activity of active fraction 1 (1st DEAE-Sephacel)
Method: After suspending 20 g of the wet cells in 40 ml of 10 mM Tris-HCl buffer solution (pH 7.4) (hereunder referred to as "buffer"), they were disrupted in a Dynamill at 4° C. for 10 minutes. After filtering the disrupted cell suspension it was centrifuged (10,000 rpm, 60 min) and the supernatant was used as a cell-free extract. The cell-free extract (250 ml) was dialyzed for 12 hours against 5 L of buffer and then applied to a DEAE-Sephacel column (3×30 cm, 200 ml) which had been equilibrized with the buffer. The adsorbed protein was eluted with an NaCl concentration gradient from 0 to 1.0 M and the active fractions were recovered.
The purine nucleosidase activity at this time was split into two peaks (FIG. 1). Fraction nos. 46 to 69 were collected as the first active fraction and fraction nos. 85 to 101 were collected as the second active fraction.
as §1

[5] = system: Active fraction 2 (purine nucleosidase activity); assay: Purine nucleosidase activity of active fraction 2 (1st DEAE-Sephacel)
purine nucleosidase [6] = assay: Specific activity, Km and Vmax of purine nucleosidase; conditions: pH 4.5
Method: as §1
(2) High-performance liquid chromatography
Eluent: 0.1 M sodium chlorate tetrahydrate, 0.1% (v/v) phosphoric acid
as §2

Compound	Relative activity (purine nucleosidase [1]) [%]	Relative activity (purine nucleosidase [2])	further results
[Cl][Fe]([Cl])[Cl] [FeCl3]	100.0		
Nc1nc2c(ncn2[C@@H]2O[C@H](COP(=O)(O)O)[C@@H](O)[C@H]2O)c(=O)[nH]1 [5'-GMP, 5'-guanosine monophosphate]		+ (<10%)	
Nc1ncnc2c1ncn2[C@@H]1O[C@H](CO)C[C@H]1O [cordycepin]		++ (<31%)	
NC(=O)c1ccc[n+]([C@@H]2O[C@H](COP(=O)([O-])OP(=O)(O)OC[C@H]3O[C@@H](n4cnc5c(N)ncnc54)[C@H](O)[C@@H]3O)[C@@H](O)[C@H]2O)c1 [β-NAD, β-nicotinamide adenine dinucleotide]		+ (<10%)	
Nc1ccn([C@@H]2O[C@H](CO)[C@@H](O)[C@H]2OP(=O)(O)O)c(=O)n1 [2'-CMP]		+ (<10%)	
O=C(O)CN(CCN(CC(=O)O)CC(=O)O)CC(=O)O [EDTA-Na2]			Relative activity (purine nucleosidase [3]): 54.4%
[Cl][Hg][Cl] [HgCl2]	39.4		Inhibition or activation of purine nucleosidase by metal ions (in words) (purine nucleosidase [1]; listed as Hg^2+): Inhibition occurred; also recorded: Inhibited
O=[Se](O)O [sodium selenite]			Inhibition of purine nucleosidase (in words) (purine nucleosidase [3]): Inhibition occurred; also recorded: inhibited
[Cl][Pb][Cl] [PbCl2]	111.0		
[Cl-].[Cs+] [CsCl]	106.9		
[Ba+2].[Cl-].[Cl-] [BaCl2]	86.1		
CCN1C(=O)C=CC1=O [N-ethylmaleimide]			Relative activity (purine nucleosidase [3]): 107.9%
O=c1[nH]cnc2c1ncn2[C@@H]1O[C@H](CO)[C@@H](O)[C@H]1OP(=O)(O)O [2'-IMP]		-	
OC[C@H]1O[C@@H](n2cnc3c(O)ncnc32)[C@H](O)[C@@H]1O [inosine]		++++ (>50%)	Specific activity, Active fraction 1 ([4]; 30° C.): 1.02 µmol/min/mg; Specific activity, Active fraction 1 ([4]; 50° C.): 4.3 µmol/min/mg; Specific activity, Active fraction 2 ([5]; 30° C.): 0.63 µmol/min/mg; Specific activity, Active fraction 2 ([5]; 50° C.): 0.44 µmol/min/mg; Km (purine nucleosidase [6]; 30° C.): 29.6 µM; Vmax (purine nucleosidase [6]; 30° C.): 18.8 µmol/min/mg; Specific activity (purine nucleosidase [6]; 50° C.): 177 µmol/min/mg; decomposition of purine nucleosides (in words) (purine nucleosidase [2]; pH 5.5 and 60° C.): capable of decomposing
O=S(=O)([O-])[O-].[Zn+2] [ZnSO4]	74.9		Inhibition or activation of purine nucleosidase by metal ions (in words) (purine nucleosidase [1]; listed as Zn^2+): Inhibition occurred; also recorded: Inhibited
NC(=O)c1ccc[n+]([C@@H]2O[C@H](COP(=O)([O-])OP(=O)(O)OC[C@H]3O[C@@H](n4cnc5c(N)ncnc54)[C@H](OP(=O)(O)O)[C@@H]3O)[C@@H](O)[C@H]2O)c1 [β-NADP]		-	
O=[As]([O-])([O-])O.[Na+].[Na+] [sodium arsenate]			Relative activity (purine nucleosidase [3]): 69.4%
[Cl][Al]([Cl])[Cl] [AlCl3]	73.6		
[Cl-].[Rb+] [RbCl]	106.5		
O=S(=O)([O-])[O-].[Fe+2] [FeSO4]	92.6		
[Cl-].[Na+] [NaCl]	93.3		

Compound	Relative activity (purine nucleosidase [1]) [%]	Relative activity (purine nucleosidase [2])	further results
NC(=O)c1ccc[n+]([C@@H]2O[C@H](COP(=O)([O-])OP(=O)(O)OC[C@H]3O[C@@H](n4cnc5c(=O)[nH]cnc54)[C@H](O)[C@@H]3O)[C@@H](O)[C@H]2O)c1 [deamino NAD]		-	
O=c1ccn([C@@H]2O[C@H](CO)[C@@H](O)[C@H]2O)c(=O)[nH]1 [uridine]		-	
O=S(=O)([O-])[O-].[Ag+].[Ag+] [Ag2 SO4]	31.6		Inhibition or activation of purine nucleosidase by metal ions (in words) (purine nucleosidase [1]; listed as Ag^+): Inhibition occurred; also recorded: Inhibited
[Ca+2].[Cl-].[Cl-] [CaCl2]	101.7		
c1cnc2c(c1)ccc1cccnc12 [o-phenanthroline]			Relative activity (purine nucleosidase [3]): 78.3%
O=C1CCC(=O)N1Br [N-bromosuccimide]			Relative activity (purine nucleosidase [3]): 113.7%
O=C(O)c1cc[c]([Hg][Cl])cc1 [p-CMB]			Relative activity (purine nucleosidase [3]): 80.2%
NNc1ccccc1 [phenylhydrazine]			Relative activity (purine nucleosidase [3]): 100.4%
NNC(N)=O [semicarbazide]			Relative activity (purine nucleosidase [3]): 103.4%
5'-bromouridine		-	
[Cl-].[Cl-].[Mg+2] [MgCl2]	91.6		
[Cl][Cd][Cl] [CdCl2]	124.9		
O=c1[nH]c(=O)c2ncn([C@@H]3O[C@H](COP(=O)(O)O)[C@@H](O)[C@H]3O)c2[nH]1 [5'-XMP]		+ (<10%)	
[Cl][Ni][Cl] [NiCl2]	91.3		
O=c1ccn([C@@H]2O[C@H](COP(=O)(O)O)[C@@H](O)[C@H]2O)c(=O)[nH]1 [5'-UMP]		-	
[F-].[Na+] [sodium fluoride]			Inhibition of purine nucleosidase (in words) (purine nucleosidase [3]): Inhibition occurred; also recorded: inhibited; Relative activity (purine nucleosidase [3]): 62.2%
Cl.NO [NH2 OH·HCl]			Relative activity (purine nucleosidase [3]): 106.6%
2'-chloroadenosine		++++ (>50%)	
O=C(O)c1cc(SSc2ccc([N+](=O)[O-])c(C(=O)O)c2)ccc1[N+](=O)[O-] [DTNB, 5,5'-dithiobis(2-nitrobenzoic acid)]			Inhibition of purine nucleosidase (in words) (purine nucleosidase [3]): Inhibition occurred; also recorded: inhibited; Relative activity (purine nucleosidase [3]): 37.4%
Nc1ncnc2c1ncn2[C@@H]1O[C@H](CO)[C@@H](O)[C@H]1OP(=O)(O)O [2'-AMP, 2'-adenosine monophosphate]		++ (<31%)	
[Cl-].[K+] [KCl]	100.9		

Compound	Relative activity (purine nucleosidase [1]) [%]	Relative activity (purine nucleosidase [2])	further results
O=C(O)CI [iodoacetic acid]			Relative activity (purine nucleosidase [3]): 99.4%
NC(=O)c1ccc[n+]([C@@H]2O[C@H](COP(=O)([O-])O)[C@@H](O)[C@H]2O)c1 [β-NMN]		-	
O=c1[nH]cnc2c1ncn2[C@@H]1O[C@H](COP(=O)(O)OP(=O)(O)O)[C@@H](O)[C@H]1O [5'-IDP]		-	
Nc1ccn([C@@H]2O[C@H](CO)[C@@H](O)[C@H]2O)c(=O)n1 [cytidine]		-	
[N-]=[N+]=[N-] [sodium azide]			Inhibition of purine nucleosidase (in words) (purine nucleosidase [3]): Inhibition occurred; also recorded: inhibited; Relative activity (purine nucleosidase [3]): 72.9%
Nc1ncnc2c1ncn2[C@H]1C[C@H](O)[C@@H](CO)O1 [2'-deoxyadenosine]		++ (<31%)	
Oc1cccc2cccnc12 [8-hydroxyquinoline]			Relative activity (purine nucleosidase [3]): 8.5%
Nc1ncnc2c1ncn2[C@@H]1O[C@H](CO)[C@@H](OP(=O)(O)O)[C@H]1O [3'-AMP, 3'-adenosine monophosphate]		++ (<31%)	
O=c1ccn([C@H]2C[C@H](O)[C@@H](CO)O2)c(=O)[nH]1 [2'-deoxyuridine]		-	
[Cl-].[Li+] [LiCl]	103.0		
Nc1ncnc2c1ncn2[C@@H]1O[C@H](COP(=O)(O)O)[C@@H](O)[C@H]1O [5'-AMP, 5'-adenosine monophosphate]		++ (<31%)	
[Cl-].[Cl-].[Co+2] [CoCl2]	82.9		
Nc1ccn([C@@H]2O[C@H](COP(=O)(O)O)[C@@H](O)[C@H]2O)c(=O)n1 [5'-CMP]		-	
Cc1cn([C@H]2C[C@H](O)[C@@H](CO)O2)c(=O)[nH]c1=O [thymidine]		-	
O=S(=O)([O-])[O-].[Be+2] [BeSO4]	88.9		
[Cl][Sn][Cl] [SnCl2]	113.2		
O=c1[nH]cc([C@@H]2O[C@H](CO)[C@@H](O)[C@H]2O)c(=O)[nH]1 [pseudouridine]		-	
O=S(=O)([O-])[O-].[Cu+2] [CuSO4]	42.7		Inhibition or activation of purine nucleosidase by metal ions (in words) (purine nucleosidase [1]; listed as Cu^2+): Inhibition occurred; also recorded: Inhibited
[Cl][Mn][Cl] [MnCl2]	65.5		Inhibition or activation of purine nucleosidase by metal ions (in words) (purine nucleosidase [1]; listed as Mn^2+): Inhibition occurred; also recorded: Inhibited
